From patent US20220073496A1, “NOVEL QUINOLINE DERIVATIVE INHIBITOR” (Nanjing Transthera Biosciences Co., Ltd., priority 2018, published 2022)

Key:
Mer (h) = target: T1, Mer (h) (Homo sapiens, UniProt Q12866); experiment: Enzymatic activity test, Mer (h); type: biochemical; details: 10 μM [γ-33P]-ATP, 40 minutes, room temperature
T1 construct: purchased
T1 sequence (Q12866 21-999): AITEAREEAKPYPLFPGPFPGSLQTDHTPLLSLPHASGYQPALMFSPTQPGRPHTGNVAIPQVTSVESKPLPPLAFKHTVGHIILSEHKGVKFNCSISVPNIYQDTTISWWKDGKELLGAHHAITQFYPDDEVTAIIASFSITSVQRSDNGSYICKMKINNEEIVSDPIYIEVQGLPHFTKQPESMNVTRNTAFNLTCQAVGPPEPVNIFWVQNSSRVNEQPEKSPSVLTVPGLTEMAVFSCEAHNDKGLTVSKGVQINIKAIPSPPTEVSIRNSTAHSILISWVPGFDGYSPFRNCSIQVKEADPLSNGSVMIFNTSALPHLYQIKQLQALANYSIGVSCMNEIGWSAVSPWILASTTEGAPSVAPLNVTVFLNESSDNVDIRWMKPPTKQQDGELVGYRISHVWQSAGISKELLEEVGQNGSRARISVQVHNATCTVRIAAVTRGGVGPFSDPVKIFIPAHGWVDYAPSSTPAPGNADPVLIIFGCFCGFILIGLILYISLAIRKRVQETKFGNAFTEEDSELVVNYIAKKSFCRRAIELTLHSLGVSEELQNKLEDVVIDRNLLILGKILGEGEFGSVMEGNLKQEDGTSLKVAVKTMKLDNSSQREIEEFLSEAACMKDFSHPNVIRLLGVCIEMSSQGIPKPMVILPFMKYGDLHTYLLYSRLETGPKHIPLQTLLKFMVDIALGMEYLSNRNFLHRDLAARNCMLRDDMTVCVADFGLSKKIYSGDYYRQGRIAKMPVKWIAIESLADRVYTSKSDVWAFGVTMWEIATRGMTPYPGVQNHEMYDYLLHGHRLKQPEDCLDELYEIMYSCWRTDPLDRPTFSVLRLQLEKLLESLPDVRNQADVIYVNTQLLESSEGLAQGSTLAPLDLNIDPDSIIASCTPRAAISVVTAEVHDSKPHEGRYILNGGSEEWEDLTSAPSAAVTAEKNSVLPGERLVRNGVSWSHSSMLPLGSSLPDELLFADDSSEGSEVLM
Description: Assay 3: Enzymatic Activity Test of the Compounds of the Present Invention
(§1) Test substances: the compounds of the present invention, wherein the structures and preparations thereof were as described above.
(1) Preparation of the Compound Stock Solution
The compound was dissolved in 100% DMSO to prepare a stock solution with a maximum concentration of 500 μM.
(2) Preparation of the Compound Working Solution
The compound stock solution was diluted to final concentrations of 500, 150, 50, 15, 5, 1.5, 0.5, 0.15 and 0.05 μM to become the compound working solutions (50×).
(3) Preparation of Different Enzyme Reaction Solutions
The Mer (h) enzyme was dissolved in 8 mM MOPS (pH 7.0), 0.2 mM EDTA, 30 mM NaCl, and 250 μM GGMEDIYFEFIVIGGKKK to prepare an enzyme solution having a final concentration of 3.1 nM. The enzymatic reaction was activated by using 10 mM magnesium acetate and 10 μM [γ-^33P]-ATP to form an Mg/ATP mixed solution.
In a 384-well plate, the compound working solution was added to final concentrations of 10000, 3000, 1000, 300, 100, 30, 10, 3, and 1 nM. Then different enzyme reaction solutions prepared according to the above conditions were added. The incubation was carried out for 40 minutes at room temperature. The test was terminated by the addition of a 0.5% phosphoric acid solution. 10 μL of the reaction solution was taken and dropped to the P30 filter paper. The filter paper was washed 4 times with 0.425% phosphoric acid solution and once with methanol, and then placed on a scintillation counter. The […] IC50 values were calculated using GraphPad 5.0 software.

[1] = Stability in liver microsome of mice; type: in vitro ADME; details: liver microsomes; Mouse liver microsome 0.5 mg protein/mL, compound 1 μM, 37° C.
Description: Assay 1: Stability assessment of the compounds of the present invention in liver microsome of mice and dogs
as §1
The composition of the incubation system:
Preparation of Test Substances:
An appropriate amount of the compound was accurately weighed and dissolved in DMSO to prepare a 5.0 mM stock solution. The 5.0 mM stock solution was diluted to 1.0 mM with DMSO, and finally diluted with water to a 10 μM test substance working solution for use (the DMSO content in the reaction system was 0.1%).
(1) The liver microsome (20 mg protein/mL) was taken out from the −80° C. refrigerator, pre-incubated at 37° C. with a water-bathing constant temperature vibrator for 3 minutes, and melted for use.
(2) A mixed solution of the incubation system (excluding compounds and β-NADPH) according to the above “composition of the incubation system” for the assay was prepared, and pre-incubated at 37° C. with a water-bathing constant temperature vibrator for 2 minutes.
(3) Control group (excluding β-NADPH): 30 μL of water and 30 μL of compound working solution (10 μM) were added to 240 μL of the mixed solution of the incubation system of step (2), and vortexed for 30 seconds to mix well. The total reaction volume was 300 μL. A duplicate sample was prepared. The sample was incubated at 37° C. with a water-bathing constant temperature vibrator. The timekeeping began and the sampling time points were set at 0 minute and 60 minutes.
(4) Sample group: 70 μL of β-NADPH solution (10 mM) and 70 μL of compound working solution (10 μM) were added to 560 μL of the mixed solution of step (2). The total reaction volume was 700 μL. The resulting mixture was vortexed for 30 seconds to mix well. A duplicate sample was prepared. The sample was incubated at 37° C. with a water-bathing constant temperature vibrator. The timekeeping began and the sampling time points were set at 0 minute, 5 minutes, 10 minutes, 20 minutes, 30 minutes, and 60 minutes after timekeeping.
(5) After vortexing for 3 minutes, the sample was centrifuged at 4000 rpm for 10 minutes.
(6) 50 μL of the supernatant was taken and 150 μL of water was added. The resulting mixture was vortexed to mix well, and analyzed by LC/MS/MS.
The half-life (t1/2) and clearance rate (Cl) were calculated using the following first-order kinetic formula:
Vd=1/protein content in liver microsome
Note: k was the slope of the logarithm of the remaining amount of the compound versus time, and Vd was the apparent distribution volume.

Structure (SMILES)	IC50 (Mer (h)) [nM]	half-life at 1 μM [1] [h]	microsomal CLint at 1 μM [1] [µL/min/mg]
COc1cc2nccc(Oc3ncc(NC(=O)c4nn(C(C)C)cc(-c5ccc(F)cc5)c4=O)cn3)c2cc1OC [Compound 34, N-(2-((6,7-dimethoxyquinolin-4-yl)oxy)pyrimidine-5-yl)-5-para-fluorophenyl-1-isopropyl-4-oxo-1,4-dihydropyridazine-3-carboxamide]	2	4.62	5
COc1cc2nccc(Oc3ccc(NC(=O)c4nn(C5CC5)cc(-c5ccc(F)cc5)c4=O)cn3)c2cc1OC [Compound 36]	< 1	5.02	4.6
COc1cc2nccc(Oc3ncc(NC(=O)c4nn(C5CC5)cc(-c5ccc(F)cc5)c4=O)cn3)c2cc1OC [Compound 37, 1-cyclopropyl-N-(2-((6,7-dimethoxyquinolin-4-yl)oxy)pyrimidine-5-yl)-5-para-fluorophenyl-4-oxo-1,4-dihydropyridazine-3-carboxamide]	< 1	8.88	2.6

Second part, the compound after the results:

IC50 (Mer (h)) [nM]	half-life at 1 μM [1] [h]	microsomal CLint at 1 μM [1] [µL/min/mg]	Structure (SMILES)
3	57.8	4	COc1cc2nccc(Oc3cnc(NC(=O)c4cn(C(C)C)nc(-c5ccc(F)cc5)c4=O)nc3)c2cc1OC [Compound 39, N-(5-((6,7-dimethoxyquinolin-4-yl)oxy)pyrimidine-2-yl)-6-(4-fluorophenyl)-2-isopropyl-5-oxo-2,5-dihydropyridazine-4-carboxamide]
12	8.88	2.6	COc1cc2nccc(Oc3ncc(NC(=O)c4cn(C(C)C)nc(-c5ccc(F)cc5)c4=O)cn3)c2cc1OC [Compound 40, N-(2-((6,7-dimethoxyquinolin-4-yl)oxy)pyrimidine-5-yl)-6-(4-fluorophenyl)-2-isopropyl-5-oxo-2,5-dihydropyridazine-4-carboxamide]
